Where a name gives a salt, the structure may show the parent alone.
Biological target: T1, MPO (purified from human polynuclear leukocytes) (Homo sapiens, UniProt P05164)
T1 construct: purified from human polynuclear leukocytes; purchased Calbiochem/EMD Biosciences; host or cells: human polynuclear leukocytes (natural source)
Assay: MPO Amplex Red Activity Assay
Assay type: biochemical
Conditions: Table 1, 2 μM H2O2, pH 7.4
Procedure, shortened: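 Human leukocyte MPO […] oxidises 30 μM Amplex Red with 2 μM H2O2 in 50 mM NaPi pH 7.4, 150 mM NaCl, 1 mM DTPA, 2% DMSO. Resorufin fluorescence (ex 530/em 580 nm) read every 20 s, minus catalase background. kobs from the first 600 s, corrected for auto-inactivation, fit versus [I] for kinact/KI.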

T1 sequence (P05164 279-745 limits assumed): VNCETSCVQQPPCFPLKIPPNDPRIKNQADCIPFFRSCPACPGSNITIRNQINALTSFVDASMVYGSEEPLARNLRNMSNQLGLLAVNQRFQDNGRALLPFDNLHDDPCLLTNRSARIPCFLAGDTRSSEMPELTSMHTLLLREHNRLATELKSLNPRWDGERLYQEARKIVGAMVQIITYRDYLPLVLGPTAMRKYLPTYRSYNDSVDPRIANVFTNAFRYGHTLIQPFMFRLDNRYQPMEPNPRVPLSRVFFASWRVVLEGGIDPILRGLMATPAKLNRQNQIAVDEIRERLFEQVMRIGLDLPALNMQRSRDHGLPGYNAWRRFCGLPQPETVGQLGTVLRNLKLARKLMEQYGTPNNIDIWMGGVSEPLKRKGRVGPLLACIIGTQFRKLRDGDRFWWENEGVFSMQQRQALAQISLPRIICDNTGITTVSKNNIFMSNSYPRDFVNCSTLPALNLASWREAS
T1 sequence (P05164 165-273 limits assumed): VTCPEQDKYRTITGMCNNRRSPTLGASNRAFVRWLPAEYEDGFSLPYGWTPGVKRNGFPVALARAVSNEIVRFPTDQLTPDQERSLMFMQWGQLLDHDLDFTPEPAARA

Row | Compound | MPO kinact/Ki
1 | COc1ccc(-c2cc(=O)[nH]c(=S)n2C[C@@H](O)CN)c(OC)c1 [Example 200, 1-[(2S)-3-amino-2-hydroxypropyl]-6-(2,4-dimethoxyphenyl)-2-thioxo-2,3-dihydropyrimidin-4(1H)-one trifluoroacetate] | 4930 1/s per M
2 | COc1ccc(-c2cc(=O)[nH]c(=S)n2CC(O)CO)c(OC)c1 (stereo not drawn) [Example 201, 1-(2,3-dihydroxypropyl)-6-(2,4-dimethoxyphenyl)-2-thioxo-2,3-dihydropyrimidin-4(1H)-one] | 4350 1/s per M
3 | COc1cc(OC)c(-c2cc(=O)[nH]c(=S)n2CCO)cc1OC [Example 202, 1-(2-hydroxyethyl)-2-thioxo-6-(2,4,5-trimethoxyphenyl)-2,3-dihydropyrimidin-4(1H)-one] | 8280 1/s per M
4 | COc1ccc(-c2cc(=O)[nH]c(=S)n2C[C@H](O)CO)c(OC)c1 [Example 203, 1-[(2S)-2,3-dihydroxypropyl]-6-(2,4-dimethoxyphenyl)-2-thioxo-2,3-dihydropyrimidin-4(1H)-one] | 3450 1/s per M
5 | COc1ccc(-c2cc(=O)[nH]c(=S)n2C[C@@H](O)CO)c(OC)c1 [Example 204, 1-[(2R)-2,3-dihydroxypropyl]-6-(2,4-dimethoxyphenyl)-2-thioxo-2,3-dihydropyrimidin-4(1H)-one] | 3900 1/s per M
6 | COc1ccc(-c2cc(=O)[nH]c(=S)n2CC(N)=O)c2ccccc12 [Example 205, 2-[6-(4-methoxy-1-naphthyl)-4-oxo-2-thioxo-3,4-dihydropyrimidin-1(2H)-yl]acetamide] | 4900 1/s per M
7 | COc1cc(-c2cc(=O)[nH]c(=S)n2CCO)c(OC)cc1Cl [Example 206, 6-(4-chloro-2,5-dimethoxyphenyl)-1-(2-hydroxyethyl)-2-thioxo-2,3-dihydropyrimidin-4(1H)-one] | 7690 1/s per M
8 | COc1ccc(-c2cc(=O)[nH]c(=S)n2Cc2ccn[nH]2)c(OC)c1 [Example 207, 6-(2,4-dimethoxyphenyl)-1-(1H-pyrazol-5-ylmethyl)-2-thioxo-2,3-dihydropyrimidin-4(1H)-one] | 2400 1/s per M
9 | NC(=O)Cn1c(-c2ccccc2OC(F)(F)F)cc(=O)[nH]c1=S [Example 208, 2-{4-oxo-2-thioxo-6-[2-(trifluoromethoxy)phenyl]-3,4-dihydropyrimidin-1(2H)-yl}acetamide] | 3760 1/s per M
10 | COc1ccc(-c2cc(=O)[nH]c(=S)n2Cc2ncn[nH]2)c(OC)c1 [Example 209, 6-(2,4-dimethoxyphenyl)-2-thioxo-1-(1H-1,2,4-triazol-5-ylmethyl)-2,3-dihydropyrimidin-4(1H)-one] | 4360 1/s per M
11 | COCCn1c(-c2ccc(OC(F)(F)F)cc2)cc(=O)[nH]c1=S [Example 210, 1-(2-methoxyethyl)-2-thioxo-6-[4-(trifluoromethoxy)phenyl]-2,3-dihydropyrimidin-4(1H)-one] | 968 1/s per M
12 | COc1ccc(-c2cc(=O)[nH]c(=S)n2CC2CCCN2)c(OC)c1 (stereo not drawn) [Example 211, 6-(2,4-dimethoxyphenyl)-1-(pyrrolidin-2-ylmethyl)-2-thioxo-2,3-dihydropyrimidin-4(1H)-one hydrochloride] | 6090 1/s per M
13 | COc1ccc(-c2cc(=O)[nH]c(=S)n2CC2CCNC2)c(OC)c1 (stereo not drawn) [Example 212, 6-(2,4-dimethoxyphenyl)-1-(pyrrolidin-3-ylmethyl)-2-thioxo-2,3-dihydropyrimidin-4(1H)-one hydrochloride] | 7590 1/s per M
14 | COc1ccc(-c2cc(=O)[nH]c(=S)n2C[C@@H]2CCCO2)c(OC)c1 [Example 213, 6-(2,4-dimethoxyphenyl)-1-[(2S)-tetrahydrofuran-2-ylmethyl]-2-thioxo-2,3-dihydropyrimidin-4(1H)-one] | 4690 1/s per M
15 | COc1ccc(-c2cc(=O)[nH]c(=S)n2C[C@H]2CCCO2)c(OC)c1 [Example 214, 6-(2,4-dimethoxyphenyl)-1-[(2R)-tetrahydrofuran-2-ylmethyl]-2-thioxo-2,3-dihydropyrimidin-4(1H)-one] | 10700 1/s per M
16 | COc1ccc(-c2cc(=O)[nH]c(=S)n2CCNC(C)=O)c(OC)c1 [Example 215, N-{2-[6-(2,4-dimethoxyphenyl)-4-oxo-2-thioxo-3,4-dihydropyrimidin-1(2H)-yl]ethyl}acetamide] | 1920 1/s per M
17 | CNC(=O)CCn1c(-c2ccc(OC)cc2OC)cc(=O)[nH]c1=S [Example 216, 3-[6-(2,4-dimethoxyphenyl)-4-oxo-2-thioxo-3,4-dihydropyrimidin-1(2H)-yl]-N-methylpropanamide] | 3260 1/s per M
18 | COc1ccc(-c2cc(=O)[nH]c(=S)n2CC(C)C(N)=O)c(OC)c1 (stereo not drawn) [Example 217, 3-[6-(2,4-dimethoxyphenyl)-4-oxo-2-thioxo-3,4-dihydropyrimidin-1(2H)-yl]-2-methylpropanamide] | 3940 1/s per M

Row | Compound | MPO kinact/Ki
19 | COc1ccc(-c2cc(=O)[nH]c(=S)n2CCCCCN)c(OC)c1 [Example 218, 1-(5-aminopentyl)-6-(2,4-dimethoxyphenyl)-2-thioxo-2,3-dihydropyrimidin-4(1H)-one hydrochloride] | 14100 1/s per M
20 | COc1ccc(-c2cc(=O)[nH]c(=S)n2CCC(C)(C)N)c(OC)c1 [Example 219, 1-(3-amino-3-methylbutyl)-6-(2,4-dimethoxyphenyl)-2-thioxo-2,3-dihydropyrimidin-4(1H)-one hydrochloride] | 1970 1/s per M
21 | COc1ccc(-c2cc(=O)[nH]c(=S)n2CCCN(C)C)c(OC)c1 [Example 220, 6-(2,4-dimethoxyphenyl)-1-[3-(dimethylamino)propyl]-2-thioxo-2,3-dihydropyrimidin-4(1H)-one] | 2420 1/s per M
22 | CCOC(=O)Cn1c(-c2ccc(OC)cc2OC)cc(=O)[nH]c1=S [Example 221, ethyl [6-(2,4-dimethoxyphenyl)-4-oxo-2-thioxo-3,4-dihydropyrimidin-1(2H)-yl]acetate] | 6230 1/s per M
23 | COc1ccc(-c2cc(=O)[nH]c(=S)n2CCOC(C)=O)c(OC)c1 [Example 222, 2-[6-(2,4-dimethoxyphenyl)-4-oxo-2-thioxo-3,4-dihydropyrimidin-1(2H)-yl]ethyl acetate] | 9820 1/s per M
24 | COc1ccc(-c2cc(=O)[nH]c(=S)n2CCNC(N)=O)c(OC)c1 [Example 223, 1-{2-[6-(2,4-dimethoxyphenyl)-4-oxo-2-thioxo-3,4-dihydropyrimidin-1(2H)-yl]ethyl}urea] | 3000 1/s per M
25 | COc1ccc(-c2cc(=O)[nH]c(=S)n2CC(C)(C)CO)c(OC)c1 [Example 224, 6-(2,4-dimethoxyphenyl)-1-(3-hydroxy-2,2-dimethylpropyl)-2-thioxo-2,3-dihydropyrimidin-4(1H)-one] | 3280 1/s per M
26 | COc1ccc(-c2cc(=O)[nH]c(=S)n2CCCCCO)c(OC)c1 [Example 225, 6-(2,4-dimethoxyphenyl)-1-(5-hydroxypentyl)-2-thioxo-2,3-dihydropyrimidin-4(1H)-one] | 5490 1/s per M
27 | COc1ccc(-c2cc(=O)[nH]c(=S)n2CCOC(C)C)c(OC)c1 [Example 226, 6-(2,4-dimethoxyphenyl)-1-(2-isopropoxyethyl)-2-thioxo-2,3-dihydropyrimidin-4(1H)-one] | 6280 1/s per M
28 | COc1ccc(-c2cc(=O)[nH]c(=S)n2CCCSC)c(OC)c1 [Example 227, 6-(2,4-dimethoxyphenyl)-1-[3-(methylthio)propyl]-2-thioxo-2,3-dihydropyrimidin-4(1H)-one] | 745 1/s per M
29 | COc1ccc(-c2cc(=O)[nH]c(=S)n2Cc2ccccc2)c(OC)c1 [Example 228, 1-benzyl-6-(2,4-dimethoxyphenyl)-2-thioxo-2,3-dihydropyrimidin-4(1H)-one] | 615 1/s per M
30 | COc1cc(-c2cc(=O)[nH]c(=S)n2CC(N)=O)c(OC)cc1Cl [Example 229, 2-[6-(4-chloro-2,5-dimethoxyphenyl)-4-oxo-2-thioxo-3,4-dihydropyrimidin-1(2H)-yl]acetamide] | 5900 1/s per M
31 | COc1ccc(-c2cc(=O)[nH]c(=S)n2Cc2ccccn2)c(OC)c1 [Example 230, 6-(2,4-dimethoxyphenyl)-1-(pyridin-2-ylmethyl)-2-thioxo-2,3-dihydropyrimidin-4(1H)-one] | 1740 1/s per M
32 | COc1ccc(-c2cc(=O)[nH]c(=S)n2Cc2cccnc2)c(OC)c1 [Example 231, 6-(2,4-dimethoxyphenyl)-1-(pyridin-3-ylmethyl)-2-thioxo-2,3-dihydropyrimidin-4(1H)-one] | 1910 1/s per M
33 | COc1ccc(-c2cc(=O)[nH]c(=S)n2Cc2ccncc2)c(OC)c1 [Example 232, 6-(2,4-dimethoxyphenyl)-1-(pyridin-4-ylmethyl)-2-thioxo-2,3-dihydropyrimidin-4(1H)-one] | 4520 1/s per M
34 | COCCn1c(-c2cc(OC)c(Cl)cc2OC)cc(=O)[nH]c1=S [Example 233, 6-(4-chloro-2,5-dimethoxyphenyl)-1-(2-methoxyethyl)-2-thioxo-2,3-dihydropyrimidin-4(1H)-one] | 2510 1/s per M
35 | COc1ccc(-c2cc(=O)[nH]c(=S)n2Cc2ncccn2)c(OC)c1 [Example 234, 6-(2,4-dimethoxyphenyl)-1-(pyrimidin-2-ylmethyl)-2-thioxo-2,3-dihydropyrimidin-4(1H)-one] | 3060 1/s per M
36 | COc1ccc(-c2cc(=O)[nH]c(=S)n2CC2CCNCC2)c(OC)c1 [Example 235, 6-(2,4-dimethoxyphenyl)-1-(piperidin-4-ylmethyl)-2-thioxo-2,3-dihydropyrimidin-4(1H)-one hydrochloride] | 2690 1/s per M

— US9399626B2, “2-thiopyrimidinones” (Pfizer Inc., priority 2011, dated 2016)
